≈ marks a conversion by molar mass, not a printed value.
What was measured:
[1] = test system: Escherichia coli; experiment: Antimicrobial activity against Escherichia coli JW55031 TolC mutant assessed as reduction in microbial growth incubated for 18 to 20 hrs by broth microdilution method
[2] = test system: Escherichia coli; experiment: Antibacterial activity against Escherichia coli ATCC 25922 incubated for 18 to 20 hrs by broth microdilution method; type: functional; conditions: time 18-20 hrs
[3] = test system: Escherichia coli; experiment: Synergistic antibacterial activity against Escherichia coli ATCC 25922 in presence of 0.25 times MIC of colistin incubated for 18 to 20 hrs by broth microdilution method; type: functional; conditions: time 18-20 hrs
[4] = test system: Klebsiella pneumoniae; experiment: Antibacterial activity against Klebsiella pneumoniae ATCC 1706 incubated for 18 to 20 hrs by broth microdilution method; type: functional; conditions: time 18-20 hrs
[5] = test system: Escherichia coli; experiment: Antibacterial activity against wild type Escherichia coli BW25113 incubated for 18 to 20 hrs by broth microdilution method; type: functional; conditions: time 18-20 hrs
[6] = test system: Escherichia coli; experiment: Synergistic antibacterial activity against wild type Escherichia coli BW25113 in presence of 0.25 times MIC of colistin incubated for 18 to 20 hrs by broth microdilution method; type: functional; conditions: time 18-20 hrs
[7] = test system: Klebsiella pneumoniae; experiment: Synergistic antibacterial activity against Klebsiella pneumoniae ATCC 1706 in presence of 0.25 times MIC of colistin incubated for 18 to 20 hrs by broth microdilution method; type: functional; conditions: time 18-20 hrs
[8] = test system: Acinetobacter baumannii; experiment: Antibacterial activity against Acinetobacter baumannii ATCC 19606 incubated for 18 to 20 hrs by broth microdilution method; type: functional; conditions: time 18-20 hrs
[9] = test system: Acinetobacter baumannii; experiment: Synergistic antibacterial activity against Acinetobacter baumannii ATCC 19606 in presence of 0.25 times MIC of colistin incubated for 18 to 20 hrs by broth microdilution method; type: functional; conditions: time 18-20 hrs
[10] = test system: Pseudomonas aeruginosa; experiment: Antibacterial activity against Pseudomonas aeruginosa ATCC 15442 incubated for 18 to 20 hrs by broth microdilution method; type: functional; conditions: time 18-20 hrs
[11] = test system: Pseudomonas aeruginosa; experiment: Synergistic antibacterial activity against Pseudomonas aeruginosa ATCC 15442 in presence of 0.25 times MIC of colistin incubated for 18 to 20 hrs by broth microdilution method; type: functional; conditions: time 18-20 hrs
[12] = test system: Caco-2; experiment: Cytotoxicity against human Caco-2 cells assessed as reduction in cell viability incubated for 2 hrs by MTS assay; type: cell-based; conditions: caco-2, 2 h
[13] = test system: Vero; experiment: Cytotoxicity against African green monkey Vero cells assessed as reduction in cell viability incubated for 2 hrs by MTS assay; type: cell-based; conditions: chlorocebus sabaeus

SMILES: COc1ccc(-c2nc3ccccc3n2Cc2ccc(C)cc2)cc1
- MIC [1]: > 128 µg/mL

SMILES: Cc1ccc(Cn2c(-c3ccccc3)nc3ccccc32)cc1
- MIC [1]: 8 µg/mL

SMILES: c1ccc(Cn2c(-c3ccccc3)nc3ccccc32)cc1
- MIC [1]: 16 µg/mL

SMILES: CC(=O)Nc1cccc(-c2nc3ccccc3n2Cc2ccc(Cl)cc2)c1
- MIC [1]: > 128 µg/mL

SMILES: CCCCCCCCCC(=O)N[C@@H](Cc1c[nH]c2ccccc12)C(=O)N[C@H](CC(N)=O)C(=O)N[C@@H](CC(=O)O)C(=O)N[C@@H]1C(=O)NCC(=O)N[C@@H](CCCN)C(=O)N[C@@H](CC(=O)O)C(=O)N[C@H](C)C(=O)N[C@@H](CC(=O)O)C(=O)NCC(=O)N[C@H](CO)C(=O)N[C@@H]([C@H](C)CC(=O)O)C(=O)N[C@@H](CC(=O)c2ccccc2N)C(=O)O[C@@H]1C
- MIC [2]: > 128 µg/mL
- MIC [3]: > 128 µg/mL
- MIC [4]: > 128 µg/mL
- MIC [5]: > 128 µg/mL
- MIC [6]: > 128 µg/mL
- MIC [7]: > 128 µg/mL
- MIC [8]: > 128 µg/mL
- MIC [9]: > 128 µg/mL
- MIC [10]: > 128 µg/mL
- MIC [11]: > 128 µg/mL

SMILES: CS(=O)(=O)Nc1cccc(-c2nc3ccccc3n2CC2CCCCC2)c1
- MIC [1]: 16 µg/mL

SMILES: Cc1ccc(Cn2c(-c3cccc(C#N)c3)nc3ccccc32)cc1
- MIC [1]: 16 µg/mL

SMILES: CS(=O)(=O)Nc1cccc(-c2nc3ccccc3n2Cc2ccc(Cl)cc2)c1
- MIC [1]: 8 µg/mL

SMILES: CC(=O)Nc1cccc(-c2nc3ccccc3n2Cc2ccc(C)cc2)c1
- MIC [1]: > 128 µg/mL

SMILES: CS(=O)(=O)Nc1cccc(-c2nc3ccccc3n2Cc2ccc(C#N)cc2)c1
- MIC [1]: 64 µg/mL

SMILES: CS(=O)(=O)Nc1cccc(-c2nc3ccccc3n2Cc2ccccc2)c1
- MIC [1]: 16 µg/mL

SMILES: CS(=O)(=O)Nc1cccc(-c2nc3ccccc3n2Cc2ccc(Cl)cc2Cl)c1
- MIC [1]: 8 µg/mL

SMILES: Cc1ccc(Cn2c(-c3cccc(C(F)(F)F)c3)nc3ccccc32)cc1
- MIC [1]: > 128 µg/mL

SMILES: Cc1ccc(Cn2c(-c3cccc([N+](=O)[O-])c3)nc3ccccc32)cc1
- MIC [1]: > 128 µg/mL

SMILES: Cc1ccc(Cn2c(-c3ccc(C(F)(F)F)cc3)nc3ccccc32)cc1
- MIC [1]: 128 µg/mL

SMILES: CS(=O)(=O)Nc1cccc(-c2nc3ccccc3n2Cc2cccc(F)c2)c1
- MIC [1]: 64 µg/mL

SMILES: CS(=O)(=O)Nc1cccc(-c2nc3ccccc3n2Cc2ccc(Br)cc2)c1
- MIC [1]: 4 µg/mL

SMILES: Cc1ccc(Cn2c(-c3cccc(N)c3)nc3ccccc32)cc1
- MIC [1]: 4 µg/mL

SMILES: Cc1ccc(Cn2c(-c3ccc(Cl)cc3)nc3ccccc32)cc1
- MIC [1]: > 128 µg/mL

SMILES: CS(=O)(=O)Nc1cccc(-c2nc3ccccc3n2Cc2cccc(C#N)c2)c1
- MIC [1]: > 128 µg/mL

SMILES: Cc1ccc(Cn2c(-c3ccc(OC(F)(F)F)cc3)nc3ccccc32)cc1
- MIC [1]: > 128 µg/mL

SMILES: Nc1cccc(-c2nc3ccccc3n2Cc2ccc(C(F)(F)F)cc2)c1
- MIC [1]: 8 µg/mL

SMILES: CS(=O)(=O)Nc1cccc(-c2nc3ccccc3n2Cc2ccc(OC(F)(F)F)cc2)c1
- MIC [1]: > 128 µg/mL

SMILES: FC(F)(F)c1ccc(Cn2c(-c3ccccc3)nc3ccccc32)cc1
- MIC [1]: 8 µg/mL

SMILES: CS(=O)(=O)Nc1cccc(-c2nc3ccccc3n2Cc2ccc(F)cc2)c1
- MIC [1]: 32 µg/mL

SMILES: CS(=O)(=O)Nc1cccc(-c2nc3ccccc3n2Cc2cccc3ccccc23)c1
- MIC [1]: > 128 µg/mL

SMILES: Cc1ccc(Cn2c(-c3ccc(C#N)cc3)nc3ccccc32)cc1
- MIC [1]: > 128 µg/mL

SMILES: Cc1cccc(Cn2c(-c3cccc(NS(C)(=O)=O)c3)nc3ccccc32)c1
- MIC [1]: 16 µg/mL

SMILES: Cc1ccc(Cn2c(-c3cccc(NS(C)(=O)=O)c3)nc3ccccc32)cc1
- MIC [1]: 2 µg/mL
- MIC [2]: > 128 µg/mL
- MIC [3]: 16 µg/mL
- MIC [4]: > 128 µg/mL
- MIC [5]: > 128 µg/mL
- MIC [6]: 16 µg/mL
- MIC [7]: 8 µg/mL
- MIC [8]: > 128 µg/mL
- MIC [9]: 8 µg/mL
- MIC [10]: > 128 µg/mL
- MIC [11]: 16 µg/mL
- Activity [12]: Non-Toxic
- Activity [13]: Non-Toxic

SMILES: CS(=O)(=O)Nc1cccc(-c2nc3ccccc3n2Cc2ccc(Cl)c(Cl)c2)c1
- MIC [1]: 8 µg/mL

SMILES: Nc1cccc(-c2nc3ccccc3n2Cc2ccc(Cl)c(Cl)c2)c1
- MIC [1]: 4 µg/mL

SMILES: CS(=O)(=O)Nc1cccc(-c2nc3ccccc3n2Cc2cccc(Cl)c2)c1
- MIC [1]: 16 µg/mL

SMILES: CS(=O)(=O)Nc1cccc(-c2nc3ccccc3n2Cc2ccc(C(F)(F)F)cc2)c1
- MIC [1]: 16 µg/mL

SMILES: Cc1ccc(Cn2c(-c3ccc(NS(C)(=O)=O)cc3)nc3ccccc32)cc1
- MIC [1]: > 128 µg/mL

SMILES: CC[C@H]1OC(=O)[C@H](C)[C@@H](O[C@H]2C[C@@](C)(OC)[C@@H](O)[C@H](C)O2)[C@H](C)[C@@H](O[C@@H]2O[C@H](C)C[C@H](N(C)C)[C@H]2O)[C@](C)(O)C[C@@H](C)C(=O)[C@H](C)[C@@H](O)[C@]1(C)O [ERYTHROMYCIN]
- MIC [2]: 16 µg/mL (≈ 21.8 µM)
- MIC [3]: 1 µg/mL
- MIC [4]: 64 µg/mL (≈ 87.2 µM)
- MIC [5]: 16 µg/mL (≈ 21.8 µM)
- MIC [6]: 1 µg/mL
- MIC [7]: 2 µg/mL
- MIC [8]: 16 µg/mL (≈ 21.8 µM)
- MIC [9]: 0.5 µg/mL
- MIC [10]: 64 µg/mL (≈ 87.2 µM)
- MIC [11]: 2 µg/mL

SMILES: CC(=O)NC[C@H]1CN(c2ccc(N3CCOCC3)c(F)c2)C(=O)O1 [LINEZOLID]
- MIC [1]: 8 µg/mL
- MIC [2]: 128 µg/mL (≈ 379 µM)
- MIC [3]: 128 µg/mL
- MIC [4]: > 128 µg/mL
- MIC [5]: 128 µg/mL (≈ 379 µM)
- MIC [6]: 128 µg/mL
- MIC [7]: > 128 µg/mL
- MIC [8]: > 128 µg/mL
- MIC [9]: > 128 µg/mL
- MIC [10]: > 128 µg/mL
- MIC [11]: > 128 µg/mL

— ChEMBL document CHEMBL4680116, “Development of benzimidazole-based derivatives as antimicrobial agents and their synergistic effect with colistin against gram-negative bacteria” (Eur J Med Chem, 2020)
